Experimental data: patent publication US8153626B2, “Substituted diazepine sulfonamides as bombesin receptor subtype-3 modulators” (Merck Sharp & Dohme Corp., priority 2006, dated 2012)
pEC50, pIC50: −log10 of the molar value. Where two headings read alike, the source gives them in different places.

Columns and labels:
human BRS3 [1] = biological target: T1, human BRS3 (Homo sapiens, UniProt P32247); experiment: [125I]-dY-peptide radioligand binding assay (filtration, membranes)
T1 construct: expressed in transfected cells
T1 sequence (P32247 1-399): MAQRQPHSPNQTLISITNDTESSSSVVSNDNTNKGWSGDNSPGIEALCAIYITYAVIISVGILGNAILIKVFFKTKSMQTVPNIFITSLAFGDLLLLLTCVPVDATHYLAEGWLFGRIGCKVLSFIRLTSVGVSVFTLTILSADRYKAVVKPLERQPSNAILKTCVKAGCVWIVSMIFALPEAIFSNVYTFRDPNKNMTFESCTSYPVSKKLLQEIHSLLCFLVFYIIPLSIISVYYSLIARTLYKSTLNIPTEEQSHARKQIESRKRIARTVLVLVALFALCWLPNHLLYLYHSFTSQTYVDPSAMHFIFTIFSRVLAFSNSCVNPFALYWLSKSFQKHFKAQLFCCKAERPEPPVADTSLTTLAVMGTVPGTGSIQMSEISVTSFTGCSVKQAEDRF
Experimental: Dissociated cells were collected by centrifuging at 1000 rpm for 10 minutes. Cell pellets were resuspended and homogenized at 4° C. using a Polytron homogenizer (setting 40, 20 stokes) in approximately 10 mL membrane preparation buffer (10 mM Tris pH 7.4, 0.01 mM Pefabloc, 10 μM phosphoramidon and 40 μg/mL Bacitracin) per T175 flask. After centrifugation at 2200 rpm (1000×g) for 10 minutes at 4° C., the supernatant was transferred to a clean centrifuge tube and spun at 18,000 rpm (38,742×g) for 15 minutes. at 4° C.
The filters were washed five times with ice-cold washing buffer (1×PBS without Mg^++ and Ca^++). The radioactivity was determined by adding 30 μl of microscintillant/well after each plate was dried at room temperature overnight or placed at 50° C. for 1 hr.
A Packard Top Count was used to read the filter plates. The data in % inhibition of binding was plotted vs. the log molar concentration of receptor ligand (compound). The IC50 was reported as the inflection point of the resulting sigmoidal curve. […] The binding assays for the rat and mouse Bombesin Receptor Subtype 3 (BRS3) were performed in a similar fashion.

human BRS3 [2] = biological target: T1, human BRS3; experiment: Aequorin bioluminescent assay to measure intracellular Ca++ (HEK293AEQ cells); assay type: cell-based; conditions: read-out: human BRS-3 EC50
Experimental: HEK293/AEQ cell lines stably expressing either human, rat or mouse BRS3 cDNA were generated using standard cell biology techniques and were used for all functional assays and to prepare membranes for the rat BRS3 binding assay. […] The transfected cells were used to prepare membranes for the [^3H]-biphenyl binding assay and for the functional assays. The cells were maintained in culture under the same conditions used for the human and rat stable BRS3 HEK293AEQ cell lines. All cells were grown as attached monolayers to approximately 90% confluency in tissue culture flasks under the appropriate media in an incubator at 37° C. with 5% CO2. Cells were passed 1:3 to 1:5 twice a week depending on the rate of growth.
The same media (8 mL) containing 20 μM coelenterzine was added to the cells and incubated at 37° C. for 1 hr. The media was aspirated and the flasks rinsed with 6 mL ECB buffer (140 mM NaCl, 20 mM KCl, 20 mM HEPES, 5 mM glucose, 1 mM MgCl, 1 mM CaCl, 0.1 mg/mL BSA, pH 7.4). The cells were dissociated with a rubber-tipped scraper in 6 mL of fresh ECB buffer and collected by centrifugation at 2500 rpm for 5 minutes. The cell pellets were resuspended in ECB buffer to a concentration of 200,000 cells/mL and were either used right away or quickly frozen in liquid nitrogen for storage at −80° C. for up to six weeks.
The Aequorin assay itself was performed in 96-well format using a Wallac Microbeta luminometer equipped with microinjector module. Compounds in DMSO (0.5% final concentration) were titrated in the plates at 2× concentration in a volume of 0.1 mL ECB buffer. The cells (20,000 per well) were then injected in 0.1 mL ECB buffer and the bioluminescence monitored for 30 seconds. Alternatively, total bioluminescence was determined over 10 minutes. The bioluminescent readings were plotted vs. the log molar concentration of receptor ligand (compound). The EC50 for activation was reported as the inflection point of the resulting sigmoidal curve.

[3] = Bombesin Subtype-3 Receptor agonism, method C, racemic mixture or the more potent enantiomer after HPLC separation
[4] = Bombesin Subtype-3 Receptor Binding, method A, racemic mixture or the more potent enantiomer after HPLC separation, read-out: human BRS-3 IC50

Row | Structure (SMILES) | pIC50 (human BRS3 [1]) | pEC50 (human BRS3 [2]; [3]) | pIC50 (human BRS3 [1]; [4]) | pIC50 (human BRS3 [1]; read-out: human BRS-3 IC50) | pEC50 (human BRS3 [2])
1 | CC(C)(O)c1nc(-c2cccc3c2N(S(=O)(=O)c2ccc(OC(F)(F)F)cc2)Cc2ccc(C(F)(F)F)nc2N3)no1 (racemic) [Example 1, 2-{3-[6-{[4-(Trifluoromethoxy)phenyl]sulfonyl}-2-(trifluoromethyl)-6,11-dihydro-5H-pyrido[2,3-b][1,5]benzodiazepin-7-yl]-1,2,4-oxadiazol-5-yl}propan-2-ol] | 8.44 | 7.14 |  |  | 
2 | CC(C)(O)c1nc(-c2cccc3c2N(S(=O)(=O)c2ccc(C(F)(F)F)cc2)Cc2ccc(C(F)(F)F)nc2N3)no1 (racemic) [Example 2, 2-[3-(2-(Trifluoromethyl)-6-{[4-(trifluoromethyl)phenyl]sulfonyl}-6,11-dihydro-5H-pyrido[2,3-b][1,5]benzodiazepin-7-yl)-1,2,4-oxadiazol-5-yl]propan-2-ol] |  | 6.80 | 8.08 |  | 
3 | CC(C)(O)c1nc(-c2cccc3c2N(S(=O)(=O)c2ccc(C4(C(F)(F)F)CC4)cc2)Cc2ccc(C(F)(F)F)nc2N3)no1 (racemic) [Example 4, 2-{3-[2-(Trifluoromethyl)-6-({4-[1-(trifluoromethyl)cyclopropyl]phenyl}sulfonyl)-6,11-dihydro-5H-pyrido[2,3-b][1,5]benzodiazepin-7-yl]-1,2,4-oxadiazol-5-yl}-2-propanol] |  | 6.86 | 8.48 |  | 
4 | CC(C)(C)c1ccc(S(=O)(=O)N2Cc3ccc(C(F)(F)F)nc3Nc3cccc(-c4noc(CO)n4)c32)cc1 (racemic) [Example 5, {3-[6-[(4-tert-Butylphenyl)sulfonyl]-2-(trifluoromethyl)-6,11-dihydro-5H-pyrido[2,3-b]-[1,5]benzodiazepin-7-yl]-1,2,4-oxadiazol-5-yl}methanol] |  | 7.47 | 9.12 |  | 
5 | Cc1ccc2c(c1C)N(S(=O)(=O)c1ccc(C(C)(C)C)cc1)Cc1ccc(C(F)(F)F)nc1N2 (racemic) [Example 251, 6-[(4-tert-Butylphenyl)sulfonyl]-7,8-dimethyl-2-(trifluoromethyl)-6,11-dihydro-5H-pyrido[2,3-b][1,5]benzodiazepine] | 9.00 | 7.00 |  |  | 
6 | CC(C)(C)c1ccc(S(=O)(=O)N2Cc3ccc(C(F)(F)F)nc3Nc3ccncc32)cc1 [Example 464, 6-[(4-tert-Butylphenyl)sulfonyl]-2-(trifluoromethyl)-6,11-dihydro-5H-dipyrido[2,3-e:3′,4′-b][1,4]diazepine] |  | 6.71 | 7.42 |  | 
7 | CC(C)(C(N)=O)c1cccc2c1N(S(=O)(=O)c1ccc(OC(F)(F)F)cc1)Cc1ccc(C(F)(F)F)nc1N2 [Example 533, 2-Methyl-2-[6-{[4-(trifluoromethoxy)phenyl]sulfonyl}-2-(trifluoromethyl)-6,11-dihydro-5H-pyrido[2,3-b][1,5]-benzodiazepin-7-yl]propanamide] |  | 7.80 | 8.66 |  | 
8 | Cc1ccc2c(n1)N(S(=O)(=O)c1ccc(C(C)(C)C)cc1)Cc1ccc(C(F)(F)F)nc1N2 [Example 536] |  | 7.18 | 8.28 |  | 

Now from value to compound:

Row | pIC50 (human BRS3 [1]) | pEC50 (human BRS3 [2]; [3]) | pIC50 (human BRS3 [1]; [4]) | pIC50 (human BRS3 [1]; read-out: human BRS-3 IC50) | pEC50 (human BRS3 [2]) | Structure (SMILES)
9 |  | 7.20 | 8.72 |  |  | CC(C)(C)c1ccc(S(=O)(=O)N2Cc3ccc(C(F)(F)F)nc3Nc3cccc(-c4noc(C(C)(C)O)n4)c32)cc1 (racemic) [Example 3, 2-{3-[6-[(4-tert-Butylphenyl)sulfonyl]-2-(trifluoromethyl)-6,11-dihydro-5H-pyrido[2,3-b][1,5]benzodiazepin-7-yl]-1,2,4-oxadiazol-5-yl}propan-2-ol]
10 |  | 7.28 | 8.19 |  |  | O=S(=O)(c1ccc(C(F)(F)F)cc1)N1Cc2ccc(C(F)(F)F)nc2Nc2cccc(-c3noc(CO)n3)c21 (racemic) [Example 6, [3-(2-(Trifluoromethyl)-6-{[4-(trifluoromethyl)phenyl]sulfonyl}-6,11-dihydro-5H-pyrido[2,3-b]-[1,5]benzodiazepin-7-yl)-1,2,4-oxadiazol-5-yl]methanol]
11 |  | 7.48 | 8.54 |  |  | O=S(=O)(c1ccc(OC(F)(F)F)cc1)N1Cc2ccc(C(F)(F)F)nc2Nc2cccc(-c3noc(CO)n3)c21 (racemic) [Example 7, {3-[6-{[4-(Trifluoromethoxy)phenyl]sulfonyl}-2-(trifluoromethyl)-6,11-dihydro-5H-pyrido[2,3-b]-[1,5]benzodiazepin-7-yl]-1,2,4-oxadiazol-5-yl}methanol]
12 | 9.19 | 7.32 |  |  |  | CC(C)(C)c1ccc(S(=O)(=O)N2Cc3ccc(C(F)(F)F)nc3Nc3ccc4ncccc4c32)cc1 [Example 316, 13-[(4-tert-Butylphenyl)sulfonyl]-9-(trifluoromethyl)-12,13-dihydro-7H-pyrido[2′,3′:5,6][1,4]diazepino[2,3-ƒ]quinoline]
13 |  | 6.89 | 8.31 |  |  | CC(C)(C)c1ccc(S(=O)(=O)N2Cc3ccc(C(F)(F)F)nc3Nc3ccc(C(C)(C)C(=O)O)cc32)cc1 [Example 374, 2-[6-[(4-tert-Butylphenyl)sulfonyl]-2-(trifluoromethyl)-6,11-dihydro-5H-pyrido[2,3-b][1,5]benzodiazepin-8-yl]-2-methylpropanoic acid]
14 |  | 6.92 | 8.39 |  |  | CC(C)(C)c1ccc(S(=O)(=O)N2Cc3ccc(C(F)(F)F)nc3Nc3ccc(-c4noc(CO)n4)cc32)cc1 [Example 437, {3-[6-[(4-tert-Butylphenyl)sulfonyl]-2-(trifluoromethyl)-6,11-dihydro-5H-pyrido[2,3-b][1,5]benzodiazepin-8-yl]-1,2,4-oxadiazol-5-yl}methanol]
15 |  |  |  | 9.19 | 7.03 | CC(C)(O)c1nc(C2(c3cccc4c3N(S(=O)(=O)c3ccc(OC(F)(F)F)cc3)Cc3ccc(C(F)(F)F)nc3N4)CCC2)no1 [Example 531, 2-(3-{1-[6-{[4-(Trifluoromethoxy)phenyl]sulfonyl}-2-(trifluoromethyl)-6,11-dihydro-5H-pyrido[2,3-b][1,5]benzodiazepin-7-yl]cyclobutyl}-1,2,4-oxadiazol-5-yl)propan-2-ol]
